# Tests used:
# Type in all cases: in vivo
# [1] = test system: Solanum nigrum (SOLNI); experiment: Pre-emergence biological efficacy (percentage damage); conditions: Solanum nigrum, 312 h, evaluated after 13 days, 100=total damage, 0=no damage; for pest or weed control at 1000 g/ha: dose 1,000 g/ha
# In short: (§1)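 Seeds were sown in standard soil in pots and, one day later, sprayed with test compound at 250 or 1000 g/ha in acetone/water (50:50) with 0.5% Tween 20. Plants grew in a glasshouse at 24/16 °C day/night, 14 h light, 65% humidity; damage was scored after 13 days (0 = none, 100 = total).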
# [2] = test system: Echinochloa crus-galli (ECHCG); experiment: as above; conditions: Echinochloa crus-galli, 312 h, evaluated after 13 days, 100=total damage, 0=no damage; for pest or weed control at 1000 g/ha: dose 1,000 g/ha
# In short: as §1
# [3] = test system: Alopecurus myosuroides (ALOMY); experiment: as above; conditions: Alopecurus myosuroides, 312 h, evaluated after 13 days, 100=total damage, 0=no damage; for pest or weed control at 1000 g/ha: dose 1,000 g/ha
# In short: as §1
# [4] = test system: Amaranthus retoflexus (AMARE); experiment: as above; conditions: Amaranthus retroflexus, 312 h, evaluated after 13 days, 100=total damage, 0=no damage; for pest or weed control at 1000 g/ha: dose 1,000 g/ha
# In short: as §1
# [5] = test system: Setaria faberi (SETFA); experiment: as above; conditions: Setaria faberi, 312 h, evaluated after 13 days, 100=total damage, 0=no damage; for pest or weed control at 1000 g/ha: dose 1,000 g/ha
# In short: as §1
# [6] = test system: Ipomea hederaceae (IPOHE); experiment: as above; conditions: Ipomoea hederacea, 312 h, evaluated after 13 days, 100=total damage, 0=no damage; for pest or weed control at 1000 g/ha: dose 1,000 g/ha
# In short: as §1
# [7] = test system: Solanum nigrum (SOLNI); experiment: Post-emergence biological efficacy (percentage damage); conditions: Solanum nigrum, 312 h, evaluated after 13 days, 100=total damage, 0=no damage; for pest or weed control at 1000 g/ha: dose 1,000 g/ha
# In short: (§2)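 Applied rates: 250 or 1000 g/ha, sprayed from acetone/water (50:50) with 0.5% Tween 20 onto plants 8 days after sowing. Visual damage rating 13 days later on a 0–100 scale.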
# [8] = test system: Echinochloa crus-galli (ECHCG); experiment: as above; conditions: Echinochloa crus-galli, 312 h, evaluated after 13 days, 100=total damage, 0=no damage; for pest or weed control at 1000 g/ha: dose 1,000 g/ha
# In short: as §2
# [9] = test system: Alopecurus myosuroides (ALOMY); experiment: as above; conditions: Alopecurus myosuroides, 312 h, evaluated after 13 days, 100=total damage, 0=no damage; for pest or weed control at 1000 g/ha: dose 1,000 g/ha
# In short: as §2
# [10] = test system: Amaranthus retoflexus (AMARE); experiment: as above; conditions: Amaranthus retroflexus, 312 h, evaluated after 13 days, 100=total damage, 0=no damage; for pest or weed control at 1000 g/ha: dose 1,000 g/ha
# In short: as §2
# [11] = test system: Setaria faberi (SETFA); experiment: as above; conditions: Setaria faberi, 312 h, evaluated after 13 days, 100=total damage, 0=no damage; for pest or weed control at 1000 g/ha: dose 1,000 g/ha
# In short: as §2
# [12] = test system: Ipomea hederaceae (IPOHE); experiment: as above; conditions: Ipomoea hederacea, 312 h, evaluated after 13 days, 100=total damage, 0=no damage; for pest or weed control at 1000 g/ha: dose 1,000 g/ha
# In short: as §2
Structure (SMILES),pest or weed control at 1000 g/ha [1] [%],pest or weed control at 1000 g/ha [2] [%],pest or weed control at 1000 g/ha [3] [%],pest or weed control at 1000 g/ha [4] [%],pest or weed control at 1000 g/ha [5] [%],pest or weed control at 1000 g/ha [6] [%],pest or weed control at 1000 g/ha [7] [%],pest or weed control at 1000 g/ha [8] [%],pest or weed control at 1000 g/ha [9] [%],pest or weed control at 1000 g/ha [10] [%],pest or weed control at 1000 g/ha [11] [%],pest or weed control at 1000 g/ha [12] [%],further results
"C=Cc1c(N)nc(-c2ccc(OC(F)(F)F)cc2)nc1C(=O)OC [Compound 47-61, 4-Amino-5-ethenyl-6-methoxycarbonyl-2-(4-trifluoromethoxy-phenyl)-pyrimidine]",0,0,0,0,0,0,70,10,10,100,10,10,
COC(=O)c1nc(-c2ccc(C)c(OC)c2F)nc(N)c1C [Compound 60-41],40,10,20,0,10,10,100,30,40,100,10,40,
"C=Cc1c(N)nc(-c2cc(F)cc(Cl)c2)nc1C(=O)OC [Compound 61-61, 4-Amino-2-(3-chloro-5-fluorophenyl)-5-ethenyl-6-methoxycarbonyl-pyrimidine]",30,0,0,0,0,0,20,0,0,10,0,0,
"C=Cc1c(N)nc(SC)nc1C(=O)OC [Compound 62-61, 4-amino-5-ethenyl-6-methoxycarbonyl-2-methylthiopyrimidine]",100,0,0,100,0,100,90,0,0,100,10,90,
"C=Cc1c(N)nc(-c2cc(F)c(F)c(F)c2)nc1C(=O)OC [Compound 63-61, 4-Amino-5-ethenyl-6-methoxycarbonyl-2-(3,4,5-trifluorophenyl)-pyrimidine]",0,0,0,0,0,0,20,0,0,0,0,20,
"C=Cc1ccc(-c2nc(N)c(C=C)c(C(=O)OC)n2)c(F)c1N(C)C [Compound 64-61, 4-amino-2-(3-dimethylamino-4-ethenyl-2-fluorophenyl)-5-ethenyl-6-methoxycarbonylpyrimidine]",10,10,10,30,10,0,60,10,10,100,30,10,
"COC(=O)c1nc(-c2ccc(C(C)=O)c(OC)c2F)nc(N)c1C(C)=O [Compound 65-53, 4-Amino-2-(2-fluoro-3-methoxy-4-methylcarbonyl-phenyl)-6-methoxycarbonyl-5-methylcarbonyl-pyrimidine]",0,0,0,0,0,20,70,10,0,20,10,50,
"C=C(OCC)c1ccc(-c2nc(N)c(C(C)=O)c(C(=O)OC)n2)c(F)c1OC [Compound 66-53, 4-amino-2-(4-[1-ethoxyethenyl]-2-fluoro-3-methoxy-phenyl)-6-methoxycarbonyl-5-methylcarbonyl-pyrimidine]",20,0,0,10,0,30,60,0,0,20,10,30,
"C=Cc1c(N)nc(-c2ccc(F)c(F)c2)nc1C(=O)OC [Compound 67-61, 4-Amino-2-(3,4-difluorophenyl)-5-ethenyl-6-methoxycarbonyl-pyrimidine]",70,30,30,100,30,50,90,40,20,100,10,60,
"C=Cc1c(N)nc(-c2ccc(C#N)cc2)nc1C(=O)OC [Compound 68-61, 4-Amino-2-(4-cyanophenyl)-5-ethenyl-6-methoxycarbonyl-pyrimidine]",,,,,,,,,,,,,pest or weed control at 250 g/ha ([1]; dose 250 g/ha): 30%; pest or weed control at 250 g/ha ([2]; dose 250 g/ha): 0%; pest or weed control at 250 g/ha ([3]; dose 250 g/ha): 0%; pest or weed control at 250 g/ha ([4]; dose 250 g/ha): 10%; pest or weed control at 250 g/ha ([5]; dose 250 g/ha): 0%; pest or weed control at 250 g/ha ([6]; dose 250 g/ha): 0%; pest or weed control at 250 g/ha ([7]; dose 250 g/ha): 80%; pest or weed control at 250 g/ha ([8]; dose 250 g/ha): 0%; pest or weed control at 250 g/ha ([9]; dose 250 g/ha): 0%; pest or weed control at 250 g/ha ([10]; dose 250 g/ha): 30%; pest or weed control at 250 g/ha ([11]; dose 250 g/ha): 0%; pest or weed control at 250 g/ha ([12]; dose 250 g/ha): 40%
"C=Cc1c(N)nc(-c2ccc(C(=O)OC)cc2)nc1C(=O)OC [Compound 69-61, 4-Amino-5-ethenyl-6-methoxycarbonyl-2-(4-methoxycarbonyl-phenyl)-pyrimidine]",0,0,0,0,0,0,20,0,0,0,0,30,
"C=Cc1c(N)nc(-c2ccc3c(c2)OCO3)nc1C(=O)OC [Compound 70-61, 4-Amino-5-ethenyl-6-methoxycarbonyl-2-(3,4-methylenedioxy-phenyl)-pyrimidine]",100,90,80,100,70,80,90,100,100,100,40,80,
